Like-named read-outs stand apart in the source and are kept apart here.
What was measured:
human 5-HT2A receptor [1] = molecular target: T1, human 5-HT2A receptor (Homo sapiens, UniProt P28223); test: Human 5-HT2A functional FLIPR assay (agonist mode); type: cell-based; set-up: expressed in transfected cells; host or cells: HTR2A&Gα15-HEK293 (tetracycline induction)
Procedure: The potential excitatory effects of compounds targeting on human 5-hydroxytryptamine receptor 2A (5-HT2A) under agonist mode was assessed.
HTR2A&Gα15-HEK293 cells were cultured in DMEM medium containing 10% dialyzed FBS and 1×penicillin-streptomycin, 100 μg/mL Hygromycin B and 300 μg/mL G418. The cells were passaged about three times a week, maintained between ˜30% to ˜90% confluence.
1. The cell culture medium (DMEM medium containing 10% dialyzed FBS and 1×penicillin-streptomycin, 100 μg/mL Hygromycin B and 300 μg/mL G418), TrypLE™ Express and DPBS to R.T. was warmed in advance.
2. For induction, 1 μg/ml tetracycline (final concentration) was added to cell culture medium and incubated for 48 hours prior to seeding cells into plate at 37° C., 5% (v/v) C02. The cell culture medium was removed from flask. Cells were washed with DPBS.
3. 2 mL TrypLE™ Express was added to the flask, mixed well by gentle shaking and cells were incubated at 37° C. for a few minutes.
4. The cells were checked for morphological change under microscope, the digestion was stopped by adding 4 mL cell culture medium to the flask when most of cells turned to round.
5. The cell suspension was transferred into a 15 mL centrifuge tube, and then centrifuged at 1,200 rpm for 5 minutes.
6. The supernatant was removed. The cell pellet was resuspended with 2 mL cell culture medium.
7. The cell density was counted using cell counter.
9. 30 μL/well cell suspensions added into a 384-well cell plate (The cell density was 20,000 cells/well).
10. The cell plate was incubated overnight at 37° C., 5% (v/v) CO2.
On the day of experiments, culture medium was removed from the cell plate.
10 μL of assay buffer (20 mM HEPES, in 1x HBSS, pH 7.4) was added to each well of the cell plate.
2×dye solution was prepared following the manual of the F LIP R® Calcium 6 Assay Kit: • i. The dye was diluted with assay buffer. • ii. Probenecid was added to the final concentration of 5 mM. • iii. Vortexed vigorously for I-2 minutes.
4. 10 μL of 2x dye solution was added to each well of the cell plate.
5. The cell plate was placed on plate shaker, followed by shaking at 600 rpm for 2 minutes.
6. The plate was incubated at 37° C. for 2 hours followed by an additional 15-minute incubation at 25° C.
1. Serotonin HCl was prepared to the concentration of 10 mM with DMSO.
2. The test compounds were prepared to the concentration of 10 mM with DMSO.
3. The compounds were added to a 384-well compound source plate.
4. 3-folds serial dilutions were performed with DMSO.
5. 90 nL/well of serial diluted compounds was transferred from source plate to a 384-well compound plate by using an Echo.
6. 30 μL/well of assay buffer (20 mM HEPES in 1x HBSS, pH 7.4) was added to the compound plate.
7. The plate was mixed on-plate shaker for 2 minutes.
1. After the cells were incubated with dye solution, the cell plate, compound plate containing 3×compounds and F LIP R tips were placed into F LIP R.
2. 10 μL of 3×compounds transferred from the compound plate to the cell plate by FLIP R.
3. The plate was read for 160 sec with 1 sec interval and the data of agonist mode was obtained.
1. The normalized fluorescence reading (RFU) was calculated as shown below, wherein F max and F min stand for maximum and minimum of calcium signal during defined time window:
2. EC50 by fitting R F U against log of compound concentrations with Hill equation was calculated using XLfit.
The potential excitatory effects of compounds targeting human 5-hydroxytryptamine receptor 2A (5-HT2A) under agonist mode was assessed.
2. For induction, 1 μg/ml tetracycline (final concentration) was added to cell culture medium and incubated for 48 hours prior to seeding cells into plate at 37° C., 5% (v/v) CO2. The cell culture medium was removed from flask. Cells were washed with DPBS.
1. On the day of experiments, culture medium was removed from the cell plate.
2. 10 μL of assay buffer (20 mM HEPES, in 1×HBSS, pH 7.4) was added to each well of the cell plate.

human 5-HT2A receptor [2] = molecular target: T1, human 5-HT2A receptor; test: Human 5-HT2A radioligand binding assay ([3H]-ketanserin); set-up: expressed in transfected cells; host or cells: HTR2A&Gα15-HEK293 (tetracycline induction)
Procedure: The objective of this study was to evaluate the binding properties of exemplary compounds of Formula (I) on 5-hydroxytryptamine receptor 2A (5-HT2A).
1. The assay buffer was prepared following Table 13 below.
Adjust pH to 7.4 followed by […] sterile filtration
2. 8 doses of reference and test compounds starting from 10 mM stock solution as required was prepared by 5-fold serial dilutions with 100% (v/v) DMSO.
3. UniFilter-96 GF/B plate was pretreated: • i. 50 μl/well of 0.5% (v/v) PEI was added to UniFilter-96 […] plates. The plates were sealed and incubated at 4° C. for 3 hrs. • ii. After incubation, the plates were washed 3 times with ice-cold wash buffer (50 mM Tris, pH7.4).
4. The assay plate was prepared: • i. Cell membrane was diluted with assay buffer and 330 μl/well was added to 96 round deep well plates to reach a concentration of 20 μg/well. • ii. 8 concentrations of reference or test compounds were prepared and 110 μl/well was added to 96 round deep well plates. • iii. [3H]-ketanserin was diluted with assay buffer to 5 nM (5×final concentration) and 110 μl/well was added to 96 round deep well plates.
5. The plate was centrifuged at 1000 rpm for 30 secs and then agitated at 600 rpm, R.T. for 5 min. […]
7. The incubation was stopped by vacuum filtration onto GF/B filter plates followed by 4 times washing with ice-cold wash buffer (50 mM Tris, pH7.4).
9. The filter plates were sealed and 40 μl/well of scintillation cocktail was added.
10. The plate was read by using a Microbeta^2 microplate counter.
1. For reference and test compounds, the results were expressed as % Inhibition, using the normalization equation: N=100−100×(U-C2)/(C1-C2), where U is the unknown value, C1 is the average of high controls, and C2 is the average of low controls.
2. The IC50 was determined by fitting percentage of inhibition as a function of compound concentrations with Hill equation using XLfit. […]

[3] = FLIPR calcium, agonist mode, HTR2A&Gα15-HEK293 cells (Table 39), read-out: h5-HT2A, EC50
[4] = [3H]-ketanserin displacement (Table 43), read-out: h5-HT2A, IC50

T1 sequence (P28223 whole entry): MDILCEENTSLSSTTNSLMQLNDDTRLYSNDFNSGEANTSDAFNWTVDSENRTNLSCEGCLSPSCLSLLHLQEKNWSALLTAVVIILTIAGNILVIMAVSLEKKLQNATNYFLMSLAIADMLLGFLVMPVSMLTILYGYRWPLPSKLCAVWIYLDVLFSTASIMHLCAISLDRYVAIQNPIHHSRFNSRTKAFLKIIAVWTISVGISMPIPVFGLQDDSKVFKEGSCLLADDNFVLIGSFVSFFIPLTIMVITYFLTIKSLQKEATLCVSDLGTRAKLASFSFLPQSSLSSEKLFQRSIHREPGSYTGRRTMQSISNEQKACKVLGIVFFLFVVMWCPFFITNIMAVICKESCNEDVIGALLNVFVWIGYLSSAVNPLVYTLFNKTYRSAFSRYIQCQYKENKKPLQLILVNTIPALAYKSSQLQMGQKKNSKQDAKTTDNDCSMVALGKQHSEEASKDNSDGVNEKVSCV

COc1ccc2[nH]cc(CCN3CC[C@@H](OC)C3)c2c1 [(R) I-66, (R)-5-methoxy-3-(2-(3-methoxypyrrolidin-1-yl)ethyl)-1H-indole]
RFU@10 μM (human 5-HT2A receptor [1]; RFU=Fmax−Fmin (Table 39)): 752 RFU | IC50 (human 5-HT2A receptor [2]): 4250 nM

COc1ccc2[nH]cc(CCN3CC[C@@H](OC(F)F)C3)c2c1 [(R) I-67, (R)-3-(2-(3-(Difluoromethoxy)pyrrolidin-1-yl)ethyl)-5-methoxy-1H-indole]
RFU@10 μM (human 5-HT2A receptor [1]; RFU=Fmax−Fmin (Table 39)): 225 RFU | IC50 (human 5-HT2A receptor [2]): 4080 nM

COc1ccc2[nH]cc(CCN3CC[C@H](OC(F)F)C3)c2c1 [(S) I-67, (S)-3-(2-(3-(Difluoromethoxy)pyrrolidin-1-yl)ethyl)-5-methoxy-1H-indole]
EC50 (human 5-HT2A receptor [1]): 994 nM | RFU@10 μM (human 5-HT2A receptor [1]; RFU=Fmax−Fmin (Table 39)): 2,147 RFU | IC50 (human 5-HT2A receptor [2]): 4880 nM

[2H]C([2H])([2H])N(CCc1c[nH]c2ccc(SC)cc12)C([2H])([2H])[2H] [Compound I-1, N,N-Bis(methyl-d3)-2-(5-(methylthio)-1H-indol-3-yl)ethan-1-amine]
EC50 (human 5-HT2A receptor [1]): 45 nM | RFU@10 μM (human 5-HT2A receptor [1]; RFU=Fmax−Fmin (Table 9)): 7,177 RFU | IC50 (human 5-HT2A receptor [2]): 392 nM

CCN(CC)CCc1c[nH]c2ccc(SC)cc12 [Compound I-12, N,N-Diethyl-2-(5-(methylthio)-1H-indol-3-yl)ethan-1-amine]
EC50 (human 5-HT2A receptor [1]): 77 nM | RFU@10 μM (human 5-HT2A receptor [1]; RFU=Fmax−Fmin (Table 9)): 1,041 RFU | IC50 (human 5-HT2A receptor [2]): 780 nM

CCN(C)CCc1c[nH]c2ccc(SC)cc12 [Compound I-13, N-Ethyl-N-methyl-2-(5-(methylthio)-1H-indol-3-yl)ethan-1-amine]
EC50 (human 5-HT2A receptor [1]): 18 nM | RFU@10 μM (human 5-HT2A receptor [1]; RFU=Fmax−Fmin (Table 9)): 726 RFU | IC50 (human 5-HT2A receptor [2]): 253 nM

CSc1ccc2[nH]cc(CCN(C(C)C)C(C)C)c2c1 [Compound I-17, N-Isopropyl-N-(2-(5-(methylthio)-1H-indol-3-yl)ethyl)propan-2-amine]
EC50 (human 5-HT2A receptor [1]): 37 nM | RFU@10 μM (human 5-HT2A receptor [1]; RFU=Fmax−Fmin (Table 9)): 8,546 RFU | IC50 (human 5-HT2A receptor [2]): 1980 nM

CSc1ccc2[nH]cc(CCN(C)C(C)C)c2c1 [Compound I-19, N-Methyl-N-(2-(5-(methylthio)-1H-indol-3-yl)ethyl)propan-2-amine]
EC50 (human 5-HT2A receptor [1]): 33 nM | RFU@10 μM (human 5-HT2A receptor [1]; RFU=Fmax−Fmin (Table 9)): 819 RFU | IC50 (human 5-HT2A receptor [2]): 936 nM

COc1ccc2[nH]cc(CCN(C)CCOC(F)F)c2c1 [Compound I-71, 2-(Difluoromethoxy)-N-(2-(5-methoxy-1H-indol-3-yl)ethyl)-N-methylethan-1-amine]
RFU@10 μM (human 5-HT2A receptor [1]; RFU=Fmax−Fmin (Table 39)): 1,094 RFU | EC50 (human 5-HT2A receptor [1]; [3]): 257 nM | IC50 (human 5-HT2A receptor [2]; [4]): 2300 nM

CN(C)CCc1c[nH]c2ccc(OCCOC(F)F)cc12 [Compound I-128, 2-(5-(2-(Difluoromethoxy)ethoxy)-1H-indol-3-yl)-N,N-dimethylethan-1-amine]
EC50 (human 5-HT2A receptor [1]): 1210 nM | RFU@10 μM (human 5-HT2A receptor [1]; RFU=Fmax−Fmin (Table 39)): 2,159 RFU | IC50 (human 5-HT2A receptor [2]): 7830 nM

CN(CCOC(F)F)CCc1c[nH]c2ccccc12 [Compound I-130, N-(2-(1H-Indol-3-yl)ethyl)-2-(difluoromethoxy)-N-methylethan-1-amine]
RFU@10 μM (human 5-HT2A receptor [1]; RFU=Fmax−Fmin (Table 39)): 247 RFU | IC50 (human 5-HT2A receptor [2]; [4]): 5680 nM

CN(C)CCc1c[nH]c2ccccc12 [DMT]
RFU@10 μM (human 5-HT2A receptor [1]; RFU=Fmax−Fmin (Table 9)): 3,493 RFU | RFU@10 μM (human 5-HT2A receptor [1]; RFU=Fmax−Fmin (Table 39)): 3,493 RFU | EC50 (human 5-HT2A receptor [1]; FLIPR calcium, agonist mode, HTR2A&Gα15-HEK293 cells (Table 9), read-out: h5-HT2A, EC50): 163 nM | EC50 (human 5-HT2A receptor [1]; [3]): 163 nM | IC50 (human 5-HT2A receptor [2]; [3H]-ketanserin displacement (Table 14), read-out: h5-HT2A, IC50): 954 nM | IC50 (human 5-HT2A receptor [2]; [4]): 954 nM
